According to patent US9074014B2 (Ipsen Pharma S.A.S., priority 2008, dated 2015):
*1 amine or outer side, *2 acyl side, *3 side chain or, on linkers, in order; H or OH if unused. Where a SMILES comes first, the peptide text is derived from it. Where no end group is shown, it is not given here. [ ]: non-standard residue; d: D form. X2 = O=C([C@@H]1CC(O)CN1[*:1])[*:2]; Tic = O=C(O)[C@@H]1Cc2ccccc2CN1; Ac6c = NC1(C(=O)O)CCCCC1; Nle = CCCC[C@H](N)C(=O)O; Ac5c = NC1(C(=O)O)CCCC1; Aib = CC(C)(N)C(=O)O

Assays:
[1] = Rat plasma half-life assay; format: in vitro ADME; conditions: rat plasma, 37° C., LC-MS; read-out: Rat Plasma T½ (converted)
Method: (§1) B. Human and Rat Plasma Half-Life Assay
(§2) 50 μL was removed at various times, like at 0, 1, 2, 3, 4, 8, 24, 32, 48, 56, 72 hours, mixed with 5 μL formic acid and 150 μL acetonitrile in a microcentrifuge tube, vertexed, and centrifuged for 10 minutes at 10K rpm. The supernatant was transferred to an injection vial and analyzed by LC-MS. The LC-MS system consisted of an API4000 mass spectrometer with an ESI probe. Positive ion mode and full scan detection were used. HPLC separation was carried out on a Luna 3μ C8 (2), 2×30 mm column with a gradient from 90% A to 90% B in 10 minutes at a flow rate of 0.3 ml/min. Buffer A was 1% formic acid in water and buffer B was 1% formic acid acetonitrile.

[2] = Human plasma half-life assay; format: in vitro ADME; conditions: human plasma, 37° C., LC-MS; read-out: Human Plasma T½ (converted)
Method: as §1, §2

Compound | half-life at 0.1 mg/ml [1] [h] | half-life at 0.1 mg/ml [2] [h]
CC[C@H](C)[C@H](NC(=O)[C@H](CO)NC(=O)[C@H](Cc1ccc(O)cc1)NC(=O)[C@H](CC(=O)O)NC(=O)[C@H](CO)NC(=O)C(C)(C)NC(=O)[C@H](Cc1ccccc1)NC(=O)[C@@H](NC(=O)CNC(=O)[C@H](CCC(=O)O)NC(=O)C(C)(C)NC(=O)[C@@H](N)Cc1ccc(O)cc1)[C@@H](C)O)C(=O)N[C@@H](C)C(=O)N[C@@H](CCSC)C(=O)N[C@@H](CC(=O)O)C(=O)N[C@@H](CCCCN)C(=O)N[C@H](C(=O)N[C@@H](Cc1c[nH]cn1)C(=O)N[C@@H](CCC(N)=O)C(=O)N[C@@H](CCC(N)=O)C(=O)N[C@@H](CC(=O)O)C(=O)N[C@@H](Cc1ccccc1)C(=O)N[C@H](C(=O)N[C@@H](CC(N)=O)C(=O)N[C@@H](Cc1c[nH]c2ccccc12)C(=O)N[C@@H](CC(C)C)C(=O)N[C@@H](CC(C)C)C(=O)N[C@@H](C)C(=O)N[C@@H](CCC(N)=O)C(=O)N[C@@H](CCCCN)C(N)=O)C(C)C)[C@@H](C)CC [Example 16, (Aib^2, 7)hGIP(1-30)-NH2] | > 48 | 43.9
YA[X2]GTFISDYSI[Aib]MDKIHQQDFVNWLLAQKGKKNDWKHNITQ [Example 67, (4Hyp^3, Aib^13)hGIP(1-42)-OH] | 1.6 | > 33
Y[Aib]EGTF[Ac6c]SDYSIA[Nle]DKIHQQDFVNWLLAQKGKKNDWKHN[Ac6c]TQ-OH [Example 28, (Aib^2, A6c^7, 40, Nle^14)hGIP(1-42)-OH] | 11.6 | > 48
Y[Aib]EGTF[Ac6c]SDYSIA[Nle]DKIHQQDFVNWLL[Aib]QKGKKNDWKHNITQ-OH [Example 30, (Aib^2, 28, A6c^7, Nle^14)hGIP(1-42)-OH] | 13.4 | > 48
H-YA[X2]GTFISDY[Ac5c]IAMDKIHQQDFVNWLLAQKGKKNDWKHNITQ-OH [Example 87, (4Hyp^3, A5c^11)hGIP(1-42)-OH] | 3.4 | 38.7
Y[Aib]EGTF[Ac6c]SDYSIA[Nle]DKIHQQDFVNWL[Ac6c]AQKGKKNDWKHNITQ-OH [Example 27, (Aib^2, A6c^7, 27, Nle^14)hGIP(1-42)-OH] | 9.3 | > 48
CC[C@H](C)[C@H](NC(=O)[C@H](CCCCN)NC(=O)[C@H](CC(=O)O)NC(=O)C1(NC(=O)[C@H](C)NC(=O)[C@@H](NC(=O)C2(NC(=O)[C@H](Cc3ccc(O)cc3)NC(=O)[C@H](CC(=O)O)NC(=O)[C@H](CO)NC(=O)[C@@H](NC(=O)[C@H](Cc3ccccc3)NC(=O)[C@@H](NC(=O)CNC(=O)[C@@H]3CCCN3C(=O)C(C)(C)NC(=O)[C@@H](N)Cc3ccc(O)cc3)[C@@H](C)O)[C@@H](C)CC)CCCC2)[C@@H](C)CC)CCCCC1)C(=O)N[C@@H](Cc1c[nH]cn1)C(=O)N[C@@H](CCC(N)=O)C(=O)N[C@@H](CCC(N)=O)C(=O)N[C@@H](CC(=O)O)C(=O)N[C@@H](Cc1ccccc1)C(=O)N[C@H](C(=O)N[C@@H](CC(N)=O)C(=O)N[C@@H](Cc1c[nH]c2ccccc12)C(=O)N[C@@H](CC(C)C)C(=O)N[C@@H](CC(C)C)C(=O)N[C@@H](C)C(=O)N[C@@H](CCC(N)=O)C(=O)N[C@@H](CCCCN)C(N)=O)C(C)C [Example 112, (Aib^2, Pro^3, A5c^11, A6c^14)hGIP(1-30)-NH2] (H-Y[Aib]PGTFISDY[Ac5c]IA[Ac6c]DKIHQQDFVNWLLAQK-NH2; N-terminus assumed) | > 72 | 59.7
YA[Tic]GTFISDY[Ac5c]IAMDKIHQQDFVNWLLAQKGKKNDWKHNITQ-OH [Example 82, (Tic^3, A5c^11)hGIP(1-42)-OH] | 10.2 | 9.7
CC[C@H](C)[C@H](NC(=O)[C@H](CO)NC(=O)[C@H](Cc1ccc(O)cc1)NC(=O)[C@H](CC(=O)O)NC(=O)[C@H](CO)NC(=O)C1(NC(=O)[C@H](Cc2ccccc2)NC(=O)[C@@H](NC(=O)CNC(=O)[C@@H]2CCCN2C(=O)[C@H](C)NC(=O)[C@@H](N)Cc2ccc(O)cc2)[C@@H](C)O)CCCC1)C(=O)N[C@@H](C)C(=O)NC1(C(=O)N[C@@H](CC(=O)O)C(=O)N[C@@H](CCCCN)C(=O)N[C@H](C(=O)N[C@@H](Cc2c[nH]cn2)C(=O)N[C@@H](CCC(N)=O)C(=O)N[C@@H](CCC(N)=O)C(=O)N[C@@H](CC(=O)O)C(=O)N[C@@H](Cc2ccccc2)C(=O)N[C@H](C(=O)N[C@@H](CC(N)=O)C(=O)N[C@@H](Cc2c[nH]c3ccccc23)C(=O)N[C@@H](CC(C)C)C(=O)N[C@@H](CC(C)C)C(=O)N[C@@H](C)C(=O)N[C@@H](CCC(N)=O)C(=O)N[C@@H](CCCCN)C(=O)NCC(=O)N[C@@H](CCCCN)C(=O)N[C@@H](CCCCN)C(=O)N[C@@H](CC(N)=O)C(=O)N[C@@H](CC(=O)O)C(=O)N[C@@H](Cc2c[nH]c3ccccc23)C(=O)N[C@@H](CCCCN)C(=O)N[C@@H](Cc2c[nH]cn2)C(=O)N[C@@H](CC(N)=O)C(=O)N[C@H](C(=O)N[C@H](C(=O)N[C@@H](CCC(N)=O)C(=O)O)[C@@H](C)O)[C@@H](C)CC)C(C)C)[C@@H](C)CC)CCCC1 [Example 76, (Pro^3, A5c^7, 14)hGIP(1-42)-OH] | 1 | 55.9
CC[C@H](C)[C@H](NC(=O)[C@H](CCCCN)NC(=O)[C@H](CC(=O)O)NC(=O)[C@H](CCSC)NC(=O)[C@H](C)NC(=O)[C@@H](NC(=O)C1(NC(=O)[C@H](Cc2ccc(O)cc2)NC(=O)[C@H](CC(=O)O)NC(=O)[C@H](CO)NC(=O)[C@@H](NC(=O)[C@H](Cc2ccccc2)NC(=O)[C@@H](NC(=O)CNC(=O)[C@@H]2CCCN2C(=O)[C@H](C)NC(=O)[C@@H](N)Cc2ccc(O)cc2)[C@@H](C)O)[C@@H](C)CC)CCCC1)[C@@H](C)CC)C(=O)N[C@@H](Cc1c[nH]cn1)C(=O)N[C@@H](CCC(N)=O)C(=O)N[C@@H](CCC(N)=O)C(=O)N[C@@H](CC(=O)O)C(=O)N[C@@H](Cc1ccccc1)C(=O)N[C@H](C(=O)N[C@@H](CC(N)=O)C(=O)N[C@@H](Cc1c[nH]c2ccccc12)C(=O)N[C@@H](CC(C)C)C(=O)N[C@@H](CC(C)C)C(=O)N[C@@H](C)C(=O)N[C@@H](CCC(N)=O)C(=O)N[C@@H](CCCCN)C(=O)NCC(=O)N[C@@H](CCCCN)C(=O)N[C@@H](CCCCN)C(=O)N[C@@H](CC(N)=O)C(=O)N[C@@H](CC(=O)O)C(=O)N[C@@H](Cc1c[nH]c2ccccc12)C(=O)N[C@@H](CCCCN)C(=O)N[C@@H](Cc1c[nH]cn1)C(=O)N[C@@H](CC(N)=O)C(=O)N[C@H](C(=O)N[C@H](C(=O)N[C@@H](CCC(N)=O)C(=O)O)[C@@H](C)O)[C@@H](C)CC)C(C)C [Example 77, (Pro^3, A5c^11)hGIP(1-42)-OH] | 1.5 | 43.3
CCCC[C@H](NC(=O)C(C)(C)NC(=O)[C@@H](NC(=O)[C@H](CO)NC(=O)[C@H](Cc1ccc(O)cc1)NC(=O)[C@H](CC(=O)O)NC(=O)[C@H](CO)NC(=O)[C@@H](NC(=O)[C@H](Cc1ccccc1)NC(=O)[C@@H](NC(=O)CNC(=O)[C@@H]1Cc2ccccc2CN1C(=O)[C@H](C)NC(=O)[C@@H](N)Cc1ccc(O)cc1)[C@@H](C)O)[C@@H](C)CC)[C@@H](C)CC)C(=O)N[C@@H](CC(=O)O)C(=O)N[C@@H](CCCCN)C(=O)N[C@H](C(=O)N[C@@H](Cc1c[nH]cn1)C(=O)N[C@@H](CCC(N)=O)C(=O)N[C@@H](CCC(N)=O)C(=O)N[C@@H](CC(=O)O)C(=O)N[C@@H](Cc1ccccc1)C(=O)N[C@H](C(=O)N[C@@H](CC(N)=O)C(=O)N[C@@H](Cc1c[nH]c2ccccc12)C(=O)N[C@@H](CC(C)C)C(=O)N[C@@H](CC(C)C)C(=O)N[C@@H](C)C(=O)N[C@@H](CCC(N)=O)C(=O)N[C@@H](CCCCN)C(=O)NCC(=O)N[C@@H](CCCCN)C(=O)N[C@@H](CCCCN)C(=O)N[C@@H](CC(N)=O)C(=O)N[C@@H](CC(=O)O)C(=O)N[C@@H](Cc1c[nH]c2ccccc12)C(=O)N[C@@H](CCCCN)C(=O)N[C@@H](Cc1c[nH]cn1)C(=O)N[C@@H](CC(N)=O)C(=O)N[C@H](C(=O)N[C@H](C(=O)N[C@@H](CCC(N)=O)C(=O)O)[C@@H](C)O)[C@@H](C)CC)C(C)C)[C@@H](C)CC [Example 69, (Tic^3, Aib^13, Nle^14)hGIP(1-42)-OH] | 1.8 | 36.9
Y[Ac5c]EGTF[Ac5c]SDYSIA[Ac6c]DKIHQQDFVNWLLAQKGKKNDWKHNITQ-OH [Example 56, (A5c^2,7, A6c^14)hGIP(1-42)-OH] | 9.2 | 16
CC[C@H](C)[C@H](NC(=O)[C@H](CO)NC(=O)[C@H](Cc1ccc(O)cc1)NC(=O)[C@H](CC(=O)O)NC(=O)[C@H](CO)NC(=O)C1(NC(=O)[C@H](Cc2ccccc2)NC(=O)[C@@H](NC(=O)CNC(=O)[C@H](CCC(=O)O)NC(=O)C(C)(C)NC(=O)[C@@H](N)Cc2ccc(O)cc2)[C@@H](C)O)CCCCC1)C(=O)N[C@@H](C)C(=O)NC1(C(=O)N[C@@H](CC(=O)O)C(=O)N[C@@H](CCCCN)C(=O)N[C@H](C(=O)N[C@@H](Cc2c[nH]cn2)C(=O)N[C@@H](CCC(N)=O)C(=O)N[C@@H](CCC(N)=O)C(=O)N[C@@H](CC(=O)O)C(=O)N[C@@H](Cc2ccccc2)C(=O)N[C@H](C(=O)N[C@@H](CC(N)=O)C(=O)N[C@@H](Cc2c[nH]c3ccccc23)C(=O)N[C@@H](CC(C)C)C(=O)N[C@@H](CC(C)C)C(=O)N[C@@H](C)C(=O)N[C@@H](CCC(N)=O)C(=O)N[C@@H](CCCCN)C(N)=O)C(C)C)[C@@H](C)CC)CCCCC1 [Example 39, (Aib^2, A6c^7, 14)hGIP(1-30)-NH2] (H-Y[Aib]EGTF[Ac6c]SDYSIA[Ac6c]DKIHQQDFVNWLLAQK-NH2; N-terminus assumed) | 43.3 | 42.3
Y[Aib]EGTFIS[Aib]YSIAMDKIHQQDFVNWLLAQKGKKNDWKHNITQ-OH [Example 2, (Aib^2, 9)hGIP(1-42)-OH] | 5.6 | 9.4
